In patent US8314089B2, “Substituted pyrazolamides and their use” (AiCuris GmbH & Co. KG, priority 2008, dated 2012) one finds IC50 data, which are given here for eleven compounds.

This assay has as its system HIV. In words: HIV infection in cell culture (H9 cells, 2% FCS). To be noted: Human immunodeficiency virus 1, HIV-infected H9 cells, suppression of 50% of virus-induced syncytia. The assay is classed as cell-based. Here is the method:
The HIV test is conducted according to the method of Pauswels et al. [cf. Journal of Virological Methods 1988, 20, 309-321], with modifications.
Primary human blood lymphocytes (PBLs) are enriched using Ficoll-Hypaque and stimulated, in RPMI 1640 medium, 20% fetal calf serum, with phytohemagglutinin (90 μg/ml) and interleukin-2 (40 U/ml). For the infection with the infectious HIV, the PBLs are pelletted and the cell pellet is subsequently suspended in 1 ml of a suitable diluted HIV virus adsorption solution and incubated for 1 hour at 37° C. (pellet infection). Unabsorbed virus is subsequently removed by centrifugation, and the infected cells are transferred to test plates (e.g. 96-well microtiter plates), which contain the test substances in a suitable dilution.
Alternatively, for example HIV-susceptible, permanent H9 cells (ATCC or NIAID, USA) are used instead of normal human blood lymphocytes for testing the antiviral effects of the compounds of the invention. Infected H9 cells are grown for test purposes in RPMI 1640 medium, 2% and/or 20% fetal calf serum.
The virus adsorption solution is centrifuged and the infected cell pellet is taken up in growth medium, so as to give 1×10^5 cells per ml. The cells infected in this way are pipetted at approx. 1×10^4 cells/well into the wells of 96-well microtiter plates (pellet infection). Alternatively the HIV is pipetted in separately only after preparation of the substance dilutions in the microtiter plates and after addition of the cells (supernatant infection).
The first vertical row of the microtiter plate contains only growth medium and cells that are not infected, but are otherwise treated exactly as described above (cell control). The second vertical row of the microtiter plate receives only HIV-infected cells (virus control) in growth medium. The other wells contain the compounds of the invention in various concentrations, starting from the wells of the 3rd vertical row of the microtiter plate, from which the test substances are diluted 2^10-fold in 2-fold steps.
Alternatively, supernatant infections are carried out (see above), in which the cells are sown in 96-well plates. The HIV virus is then added in a volume of 50 μl.
The test preparations are incubated at 37° C., until the formation of syncytia that is typical of HIV occurs in the untreated virus control (between day 3 and 6 after infection), which is then evaluated either microscopically or by p24 ELISA detection methods (Vironostika, BioMerieux, The Netherlands) or photometrically or fluorometrically using Alamar Blue indicator dye.
The IC50 values are determined as the concentration of the test substance at which 50% (approx. 20-100 syncytia) of the virus-induced syncytia are suppressed by the treatment with the compound of the invention. The cut-off values are set correspondingly in the ELISA test and in the photometric or fluorometric determination using Alamar Blue. In addition to determination of the antiviral effects, the treated cell cultures are also investigated microscopically with respect to cytotoxic, cytostatic or cytological changes and with respect to solubility. Active compounds that show cell-altering, cytotoxic findings in the concentration range of the activity are not assessed for their antiviral activity.

The IC50 is the point on the concentration scale where inhibition reaches its midpoint. A lower IC50 goes with inhibition by little substance.

In turn, `O=C(c1cc(-c2cccc(C(F)(F)F)c2)n(-c2cccc(Cl)c2)n1)N1CCC(O)C1` (centres unmarked) [Example 2] yielded an IC50 of 0.05 µM. Regarding `O=C(c1cc(-c2cccc(OC(F)(F)F)c2)n(-c2cccc(Cl)c2)n1)N1CCCOCC1` [Example 5], the half-inhibitory concentration (IC50) came out at 0.04 µM. Then `COc1ccc(-c2cc(C(=O)N3CCOCC3)nn2-c2cccc(Cl)c2)cc1OC` [Example 35], with 0.1 µM; and `O=C(c1cc(-c2cccc(OC(F)(F)F)c2)n(-c2cccc(Cl)c2)n1)N1CCOCC1` [Example 4], with 0.05 µM; and `O=CN1CCN(C(=O)c2cc(-c3cccc(SC(F)(F)F)c3)n(-c3cccc(Cl)c3)n2)CC1` [Example 15, 4-{[1-(3-Chlorophenyl)-5-(3-trifluoromethylthiophenyl)-1H-pyrazol-3-yl]carbonyl}-piperazine-1-carbaldehyde], with 0.15 µM. The compound `O=C(c1cc(-c2cccc(OC(F)(F)F)c2)n(-c2cccc(Cl)c2)n1)N1CC[C@@H](O)C1` [Example 10] yielded an IC50 of 0.05 µM. Then `O=C(c1cc(-c2cccc(OC(F)(F)F)c2)n(-c2cccc(Cl)c2)n1)N1CCSC1` [Example 6], with 0.1 µM; and `O=C(c1cc(-c2cccc(C(F)(F)F)c2)n(-c2cccc(Cl)c2)n1)N1CCSC1` [Example 43], with 0.1 µM.

In turn, `N#Cc1cccc(-c2cc(C(=O)N3CCOCC3)nn2-c2cccc(Cl)c2)c1` [Example 32] yielded an IC50 of 0.04 µM. In turn, `O=C(c1cc(-c2ccccc2)n(-c2cccc(Cl)c2)n1)N1CCSC1` [Example 34] had an IC50 of 0.08 µM. `O=C(c1cc(-c2ccccc2)n(-c2cccc(Cl)c2)n1)N1CCOCC1` [Example 33] came in with an IC50 of 0.05 µM.
